Experimental findings from PubChem BioAssay (NCI) are described below.

Test systems include MDA-MB-231 breast; NCI-H226 lung; K-562 leukemia; SR leukemia; SF-268 CNS; SN12C renal; SK-MEL-2 melanoma; UO-31 renal; OVCAR-3 ovarian; OVCAR-8 ovarian.
Experiment in all cases: inhibition of tumour cell growth, NCI panel, 48 h

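Protocol summary: plate cells (96-well), add compound at 5 concentrations, incubate 48 h, interpolate endpoints linearly. Here, GI50 denotes the concentration required for 50% inhibition of growth. TGI: total growth inhibition.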 Some results are limits rather than exact numbers.

As to `Cn1c(=O)c2[nH]c(SCc3ccccn3)nc2n(C)c1=S`, the TGI in the assay on MDA-MB-231 breast, in the assay on NCI-H226 lung, in the assay on K-562 leukemia, in the assay on SR leukemia, with SF-268 CNS and with SN12C renal was more than 100 µM throughout. For the same compound, the TGI with SK-MEL-2 melanoma, in the assay with UO-31 renal, in the assay with OVCAR-3 ovarian and in the assay with OVCAR-8 ovarian was more than 100 µM throughout.
On to `O=C1Nc2c(C(F)(F)F)cccc2[C@]1(c1ccc(O)cc1)c1ccc(OC(F)(F)F)cc1`, for which the GI50 in the assay with MDA-MB-231 breast was 13 µM; in the assay with NCI-H226 lung, 11.6 µM; in the assay on K-562 leukemia it was 8.57 µM; in the assay with SR leukemia it was 6.6 µM; with SF-268 CNS it was 8.73 µM; with SN12C renal, 2.83 µM. The GI50 in the assay on SK-MEL-2 melanoma was 12.6 µM; in the assay on UO-31 renal it was 6.45 µM; with OVCAR-3 ovarian, 3.95 µM; in the assay on OVCAR-8 ovarian, 5.29 µM. The TGI in the assay with MDA-MB-231 breast was 26.2 µM; in the assay with NCI-H226 lung, 32.4 µM; with K-562 leukemia it was more than 100 µM; in the assay on SR leukemia it was 39.8 µM; in the assay with SF-268 CNS it was 24 µM; in the assay on SN12C renal, 12.3 µM. For the same compound, the TGI in the assay with SK-MEL-2 melanoma is 28.2 µM; with UO-31 renal, 20 µM; with OVCAR-3 ovarian, 16.3 µM; in the assay with OVCAR-8 ovarian, 21.8 µM.
As for `Cc1ccc(NC(=O)c2cccc(N(C)C)c2)cc1NC(=O)c1ccc(O)cc1`, the GI50 in the assay on MDA-MB-231 breast is 33 µM; in the assay with NCI-H226 lung, more than 71.4 µM; with K-562 leukemia, 42.7 µM; with SR leukemia, 31.5 µM; in the assay on SF-268 CNS, 44.6 µM; with SN12C renal, 55 µM. The GI50 with SK-MEL-2 melanoma was 14.1 µM; in the assay on UO-31 renal it was more than 73.4 µM; with OVCAR-3 ovarian, 67.3 µM; in the assay on OVCAR-8 ovarian, 53.2 µM. Further, the TGI was more than 93.6 µM in the assay with MDA-MB-231 breast; more than 100 µM with NCI-H226 lung; more than 100 µM in the assay with K-562 leukemia; more than 100 µM in the assay with SR leukemia; more than 100 µM in the assay on SF-268 CNS; more than 100 µM in the assay with SN12C renal. For the same compound, the TGI with SK-MEL-2 melanoma was 39.2 µM; in the assay on UO-31 renal, more than 100 µM; in the assay with OVCAR-3 ovarian, more than 100 µM; with OVCAR-8 ovarian it was more than 100 µM.
For `C=C1C(=O)O[C@H]2[C@H]1CC/C(COC(=O)c1ccc3ccccc3c1)=C\CC[C@@]1(C)O[C@@H]21`, the GI50 in the assay with MDA-MB-231 breast is 1.35 µM; in the assay on NCI-H226 lung it was 1.42 µM; in the assay with K-562 leukemia it was 0.39 µM; with SR leukemia, 0.336 µM; with SF-268 CNS, 1.28 µM; in the assay with SN12C renal it was 1.16 µM. Moreover, the GI50 in the assay on SK-MEL-2 melanoma was 1.2 µM; in the assay with UO-31 renal, 0.859 µM; with OVCAR-3 ovarian it was 0.538 µM; with OVCAR-8 ovarian, 1.1 µM. In addition, the TGI was 3 µM in the assay on MDA-MB-231 breast; 3.21 µM in the assay with NCI-H226 lung; 5.47 µM in the assay with K-562 leukemia; more than 26.8 µM with SR leukemia; 2.75 µM with SF-268 CNS; 2.87 µM with SN12C renal. The TGI in the assay on SK-MEL-2 melanoma turned out to be 2.61 µM; in the assay with UO-31 renal it was 2.11 µM; in the assay on OVCAR-3 ovarian it was 1.77 µM; in the assay with OVCAR-8 ovarian, 2.56 µM.
On to `CN1CCN(C)C12C=c1ccccc1=CC21CC1`, for which the TGI in the assay on MDA-MB-231 breast is more than 100 µM; in the assay with NCI-H226 lung, more than 100 µM; in the assay on K-562 leukemia, 46.4 µM; with SR leukemia, 63.2 µM; in the assay on SF-268 CNS, more than 77 µM; in the assay on SN12C renal it was more than 100 µM. The TGI in the assay with SK-MEL-2 melanoma was 53.7 µM; with UO-31 renal, more than 100 µM; with OVCAR-3 ovarian, more than 100 µM; in the assay with OVCAR-8 ovarian, 98 µM.
Regarding `Oc1ccc(CN2CCC(N3CCCCC3)CC2)c2cccnc12`, the GI50 in the assay with MDA-MB-231 breast was 22.4 µM; with NCI-H226 lung it was 29 µM; in the assay with K-562 leukemia it was 2.23 µM; with SR leukemia it was 16.7 µM; in the assay with SF-268 CNS, 7.06 µM; in the assay on SN12C renal, 8.18 µM. Besides, the GI50 was 27.9 µM in the assay with SK-MEL-2 melanoma, 6.2 µM with UO-31 renal, 27.5 µM in the assay with OVCAR-3 ovarian and 7.69 µM with OVCAR-8 ovarian. Moreover, the TGI in the assay on MDA-MB-231 breast is more than 100 µM; in the assay on NCI-H226 lung, 82.2 µM; in the assay with K-562 leukemia, more than 100 µM; in the assay on SR leukemia it was more than 100 µM; in the assay on SF-268 CNS, more than 100 µM; in the assay on SN12C renal, more than 100 µM. Besides, the TGI with SK-MEL-2 melanoma was more than 100 µM; with UO-31 renal it was 34.6 µM; with OVCAR-3 ovarian it was more than 100 µM; with OVCAR-8 ovarian, more than 100 µM.
For `COC(=O)[C@]12CC[C@@H](C)[C@H](C)[C@@H]1C1=CC[C@@H]3[C@@]4(C)C/C(=N\O)[C@H](O)[C@@]5(C)COC(=C45)C[C@@]3(C)[C@]1(C)CC2`, the GI50 in the assay on MDA-MB-231 breast was 3.84 µM; in the assay on NCI-H226 lung, 14.8 µM; in the assay with K-562 leukemia, 3.77 µM; in the assay with SR leukemia, 2.33 µM; in the assay on SF-268 CNS, 12.6 µM; in the assay on SN12C renal, 5.79 µM. For the same compound, the GI50 in the assay with SK-MEL-2 melanoma is 13.4 µM; in the assay on UO-31 renal, 12.3 µM; with OVCAR-3 ovarian it was 5.47 µM; with OVCAR-8 ovarian, 10 µM. In addition, the TGI in the assay with MDA-MB-231 breast is 16 µM; in the assay with NCI-H226 lung, 33.5 µM; with K-562 leukemia, 14.9 µM; in the assay on SR leukemia, 5.77 µM; in the assay with SF-268 CNS, 30 µM; with SN12C renal, 21.2 µM. The TGI with SK-MEL-2 melanoma was found to be 28.9 µM; in the assay on UO-31 renal, 29.2 µM; with OVCAR-3 ovarian it was 18.2 µM; with OVCAR-8 ovarian, 26.6 µM.
As to `CC/C(=C(/c1ccc(O)cc1)c1ccc(OCCNC)cc1)c1ccccc1`, the GI50 was 1.39 µM with MDA-MB-231 breast; 5.03 µM with NCI-H226 lung; 1.86 µM with K-562 leukemia; 2.09 µM in the assay on SR leukemia; 2.48 µM in the assay with SF-268 CNS; 2.19 µM in the assay with SN12C renal. Further, the GI50 with SK-MEL-2 melanoma is 2.08 µM; in the assay with UO-31 renal it was 1.86 µM; with OVCAR-3 ovarian it was 2.1 µM; with OVCAR-8 ovarian, 2.14 µM. Besides, the TGI in the assay on MDA-MB-231 breast came to 3.09 µM; in the assay on NCI-H226 lung, 20.3 µM; in the assay with K-562 leukemia, 4.41 µM; with SR leukemia, 5.46 µM; in the assay with SF-268 CNS, 7.27 µM; in the assay with SN12C renal it was 5.78 µM. The TGI in the assay with SK-MEL-2 melanoma was 3.77 µM; in the assay on UO-31 renal it was 4.8 µM; with OVCAR-3 ovarian, 4.52 µM; with OVCAR-8 ovarian it was 5.13 µM.
